Key:
Type in all cases: in vivo
[1] = tested on: Italian ryegrass (Lolium multiflorum); test: Test B pre-/postemergence plant response
Summary of the method: (§1)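 Evaluation is visual, about 10 days after application, rating injury from 0 (none) to 100 (complete control) relative to untreated controls. Application was a preemergence soil spray on seeded pots or a postemergence spray on one- to two-leaf plants.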

[2] = tested on: barnyardgrass (Echinochloa crus-galli); test: Test B pre-/postemergence plant response
Summary of the method: as §1

corn (Zea mays) = test: Test B pre-/postemergence plant response
Summary of the method: as §1

[3] = tested on: giant foxtail (Setaria faberii); test: Test B pre-/postemergence plant response
Summary of the method: as §1

kochia (Kochia scoparia) = test: Test B pre-/postemergence plant response
Summary of the method: as §1

[4] = tested on: pigweed (Amaranthus retroflexus); test: Test B pre-/postemergence plant response
Summary of the method: as §1

[5] = tested on: ragweed (common ragweed, Ambrosia elatior); test: Test B pre-/postemergence plant response
Summary of the method: as §1

[6] = tested on: wheat (Triticum aestivum); test: Test B pre-/postemergence plant response
Summary of the method: as §1

[7] = tested on: blackgrass (Alopecurus myosuroides); test: Test B postemergence plant response
Summary of the method: (§2)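 Values are visual control ratings (0 to 100) recorded approximately 10 days after postemergence application to greenhouse-grown plants of 2 to 10 cm, one- to two-leaf stage, each judged against untreated controls.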

[8] = tested on: galium (catchweed bedstraw, Galium aparine); test: Test B postemergence plant response
Summary of the method: as §2

[9] = tested on: barnyardgrass (Echinochloa crus-galli); test: Test C flooded paddy test plant response; conditions: Flood, 250 g ai/ha; scale of 0 to 100 where 0 is no effect and 100 is complete control; 13 to 15 days
Summary of the method: (§3)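 Readout is a visual 0–100 score (100 = complete control) versus controls at 13–15 days. Plants at 2-leaf stage, flooded to 3 cm, treated through paddy water.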

[10] = tested on: ducksalad (Heteranthera limosa); test: Test C flooded paddy test plant response; conditions: Flood, 250 g ai/ha; scale of 0 to 100 where 0 is no effect and 100 is complete control; 13 to 15 days
Summary of the method: as §3

rice (Oryza sativa) = test: Test C flooded paddy test plant response; conditions: Flood, 250 g ai/ha; scale of 0 to 100 where 0 is no effect and 100 is complete control; 13 to 15 days
Summary of the method: as §3

[11] = tested on: small-flower umbrella sedge (Cyperus difformis); test: Test C flooded paddy test plant response; conditions: Flood, 250 g ai/ha; scale of 0 to 100 where 0 is no effect and 100 is complete control; 13 to 15 days
Summary of the method: as §3

[12] = 31 g ai/ha, Preemergence, 0 to 100 scale where 0 is no effect and 100 is complete control
[13] = 125 g ai/ha, postemergence, 0 to 100 scale, 0 no effect, 100 complete control
[14] = Postemergence, 31 g ai/ha, 0 to 100 scale (0 no effect, 100 complete control)
[15] = Preemergence, 125 g ai/ha, 0 to 100 scale (0 no effect, 100 complete control)
[16] = Postemergence, 500 g ai/ha, 0 to 100 scale (0 no effect, 100 complete control)
[17] = Preemergence, 500 g ai/ha, 0 to 100 scale where 0 is no effect and 100 is complete control
[18] = Postemergence, 1000 g ai/ha, 0 to 100 scale (0 no effect, 100 complete control)
[19] = Preemergence, 1000 g ai/ha, 0 to 100 scale (0 no effect, 100 complete control)

| Compound | Plant response rating, Ryegrass, Italian [1, 13] | Ryegrass, Italian plant response rating [1, 15] | Plant response rating, Barnyardgrass [2, 13] | Barnyardgrass plant response rating [2, 15] | Plant response rating, Corn (corn (Zea mays); [13]) | Plant response rating, Foxtail, Giant [3, 13] | Foxtail, Giant plant response rating [3, 15] | Plant response rating, Kochia (kochia (Kochia scoparia); [13]) | Kochia plant response rating (kochia (Kochia scoparia); [15]) | Plant response rating, Pigweed [4, 13] | Pigweed plant response rating [4, 15] | Plant response rating, Ragweed [5, 13] | Ragweed plant response rating [5, 15] | Plant response rating, Wheat [6, 13] | Plant response rating, Blackgrass [7, 13] | Plant response rating, Galium [8, 13] | Barnyardgrass plant response rating [9] | Ducksalad plant response rating [10] | Rice plant response rating (rice (Oryza sativa)) | Sedge, Umbrella plant response rating [11] | further results |
| --- | --- | --- | --- | --- | --- | --- | --- | --- | --- | --- | --- | --- | --- | --- | --- | --- | --- | --- | --- | --- | --- |
| Fc1cccc(Oc2ncc(Cl)cn2)c1-c1cnccn1 [Compound 165] | 0 | 0 | 20 | 10 | 0 | 20 | 10 | 40 | 60 | 50 | 80 | 60 | 50 | 0 | 30 | 40 | 0 | 0 | 0 | 0 | Plant response rating, Ryegrass, Italian [1, 12]: 0; Plant response rating, Ryegrass, Italian [1, 14]: 0; Plant response rating, Barnyardgrass [2, 12]: 0; Plant response rating, Barnyardgrass [2, 14]: 0; Plant response rating, Corn (corn (Zea mays); [14]): 0; Plant response rating, Foxtail, Giant [3, 12]: 0; Plant response rating, Foxtail, Giant [3, 14]: 10; Plant response rating, Kochia (kochia (Kochia scoparia); [12]): 0; Plant response rating, Kochia (kochia (Kochia scoparia); [14]): 20; Plant response rating, Pigweed [4, 12]: 30; Plant response rating, Pigweed [4, 14]: 30; Plant response rating, Ragweed [5, 12]: 20; Plant response rating, Ragweed [5, 14]: 30; Plant response rating, Wheat [6, 14]: 0; Plant response rating, Blackgrass [7, 14]: 20; Plant response rating, Galium [8, 14]: 20 |
| Fc1cnc(Oc2cccc(F)c2-c2cnccn2)nc1 [Compound 166] | 0 | 0 | 0 | 0 | 10 | 0 | 0 | 0 | 0 | 30 | 60 | 30 | 20 | 0 | 0 | 30 | 0 | 0 | 0 | 0 | Plant response rating, Ryegrass, Italian [1, 12]: 0; Plant response rating, Ryegrass, Italian [1, 14]: 0; Plant response rating, Barnyardgrass [2, 12]: 0; Plant response rating, Barnyardgrass [2, 14]: 0; Plant response rating, Corn (corn (Zea mays); [14]): 0; Plant response rating, Foxtail, Giant [3, 12]: 0; Plant response rating, Foxtail, Giant [3, 14]: 0; Plant response rating, Kochia (kochia (Kochia scoparia); [12]): 0; Plant response rating, Kochia (kochia (Kochia scoparia); [14]): 0; Plant response rating, Pigweed [4, 12]: 40; Plant response rating, Pigweed [4, 14]: 20; Plant response rating, Ragweed [5, 12]: 0; Plant response rating, Ragweed [5, 14]: 10; Plant response rating, Wheat [6, 14]: 0; Plant response rating, Blackgrass [7, 14]: 0; Plant response rating, Galium [8, 14]: 20 |
| Cc1c(-c2ccccc2Oc2ncc(Cl)cn2)noc1C(F)(F)F [Compound 167] | 0 | 0 | 0 | 0 | 0 | 0 | 0 | 10 | 0 | 10 | 0 | 0 | 0 | 10 | 0 | 10 | 0 | 0 | 0 | 0 | Plant response rating, Ryegrass, Italian [1, 16]: 0; Plant response rating, Ryegrass, Italian [1, 17]: 0; Plant response rating, Barnyardgrass [2, 16]: 10; Plant response rating, Barnyardgrass [2, 17]: 10; Plant response rating, Corn (corn (Zea mays); [16]): 20; Plant response rating, Foxtail, Giant [3, 16]: 10; Plant response rating, Foxtail, Giant [3, 17]: 30; Plant response rating, Kochia (kochia (Kochia scoparia); [16]): 60; Plant response rating, Kochia (kochia (Kochia scoparia); [17]): 30; Plant response rating, Pigweed [4, 16]: 70; Plant response rating, Pigweed [4, 17]: 20; Plant response rating, Ragweed [5, 16]: 0; Plant response rating, Ragweed [5, 17]: 10; Plant response rating, Wheat [6, 16]: 20; Plant response rating, Blackgrass [7, 16]: 10; Plant response rating, Galium [8, 16]: 60 |
| Cc1cc(-c2ccccc2Oc2ncc(Cl)cn2)sn1 [Compound 171] |  |  |  |  |  |  |  |  |  |  |  |  |  |  |  |  | 0 | 0 | 0 | 0 | Plant response rating, Ryegrass, Italian [1, 18]: 10; Plant response rating, Ryegrass, Italian [1, 19]: 10; Plant response rating, Barnyardgrass [2, 18]: 30; Plant response rating, Barnyardgrass [2, 19]: 70; Plant response rating, Corn (corn (Zea mays); [18]): 10; Plant response rating, Foxtail, Giant [3, 18]: 100; Plant response rating, Foxtail, Giant [3, 19]: 100; Plant response rating, Kochia (kochia (Kochia scoparia); [18]): 100; Plant response rating, Kochia (kochia (Kochia scoparia); [19]): 90; Plant response rating, Pigweed [4, 18]: 100; Plant response rating, Pigweed [4, 19]: 100; Plant response rating, Ragweed [5, 18]: 30; Plant response rating, Ragweed [5, 19]: 0; Plant response rating, Wheat [6, 18]: 30; Plant response rating, Blackgrass [7, 18]: 80; Plant response rating, Galium [8, 18]: 100 |
| Cc1cnc(Oc2ccccc2-c2cc(C(C)(F)F)on2)nc1 [Compound 173] | 20 | 20 | 70 | 90 | 40 | 90 | 100 | 100 | 100 | 80 | 100 | 60 | 70 | 0 | 70 | 90 | 0 | 80 | 0 | 60 | Plant response rating, Ryegrass, Italian [1, 12]: 0; Plant response rating, Ryegrass, Italian [1, 14]: 0; Plant response rating, Barnyardgrass [2, 12]: 60; Plant response rating, Barnyardgrass [2, 14]: 30; Plant response rating, Corn (corn (Zea mays); [14]): 10; Plant response rating, Foxtail, Giant [3, 12]: 50; Plant response rating, Foxtail, Giant [3, 14]: 30; Plant response rating, Kochia (kochia (Kochia scoparia); [12]): 70; Plant response rating, Kochia (kochia (Kochia scoparia); [14]): 70; Plant response rating, Pigweed [4, 12]: 80; Plant response rating, Pigweed [4, 14]: 60; Plant response rating, Ragweed [5, 12]: 10; Plant response rating, Ragweed [5, 14]: 40; Plant response rating, Wheat [6, 14]: 0; Plant response rating, Blackgrass [7, 14]: 30; Plant response rating, Galium [8, 14]: 50 |
| Clc1cnc(Oc2ccccc2-c2cc(Cl)ccn2)nc1 [Compound 174] | 0 | 0 | 10 | 0 | 0 | 0 | 40 | 70 | 0 | 50 | 80 | 30 | 0 | 0 | 50 | 70 | 0 | 0 | 0 | 0 | Plant response rating, Ryegrass, Italian [1, 12]: 0; Plant response rating, Ryegrass, Italian [1, 14]: 0; Plant response rating, Barnyardgrass [2, 12]: 0; Plant response rating, Barnyardgrass [2, 14]: 0; Plant response rating, Corn (corn (Zea mays); [14]): 0; Plant response rating, Foxtail, Giant [3, 12]: 0; Plant response rating, Foxtail, Giant [3, 14]: 0; Plant response rating, Kochia (kochia (Kochia scoparia); [14]): 60; Plant response rating, Pigweed [4, 12]: 60; Plant response rating, Pigweed [4, 14]: 50; Plant response rating, Ragweed [5, 12]: 0; Plant response rating, Ragweed [5, 14]: 20; Plant response rating, Wheat [6, 14]: 0; Plant response rating, Blackgrass [7, 14]: 40; Plant response rating, Galium [8, 14]: 60 |

Source: patent publication US10131652B2, “Pyrimidinyloxy benzene derivatives as herbicides” (E. I. DU PONT DE NEMOURS AND COMPANY, priority 2014, dated 2018)
